Assay results published in ChEMBL document CHEMBL1128410 (J Med Chem, 1995).

Target: Carbonic anhydrase 2 (Homo sapiens, UniProt P00918)
Description: Compound was tested for the binding affinity towards Carbonic anhydrase II by competitive fluorescence assay with dansylamide

Structure (SMILES) | Kd [nM]
NC(CCC(=O)O)C(=O)[C@@H](N)C(=O)NCCOCCOCCNC(=O)c1ccc(S(N)(=O)=O)cc1 (stereo not given in full) | 100
NCC(=O)[C@@H](N)C(=O)NCCOCCOCCNC(=O)c1ccc(S(N)(=O)=O)cc1 | 19
CC(C)CC(N)C(=O)[C@@H](N)C(=O)NCCOCCOCCNC(=O)c1ccc(S(N)(=O)=O)cc1 (stereo not given in full) | 16

Second part, the molecule after the results:

Kd [nM] | Structure (SMILES)
41 | NC(CO)C(=O)[C@@H](N)C(=O)NCCOCCOCCNC(=O)c1ccc(S(N)(=O)=O)cc1 (stereo not given in full)
50 | NCCCCC(N)C(=O)[C@@H](N)C(=O)NCCOCCOCCNC(=O)c1ccc(S(N)(=O)=O)cc1 (stereo not given in full)
